# Key:
# [1] = test system: BRIN-BD11 pancreatic β-cells; assay: Cell viability of palmitic acid-lipointoxicated pancreatic β-cells (propidium iodide, flow cytometry); format: cell-based, rat; conditions: BRIN-BD11, 200 μM palmitic acid
# Protocol: Pancreatic β-cells, BRIN-BD11, were grown under control conditions or in the presence of an exogenous source of saturated fatty acid (200 μM palmitic acid), as described by Dhayal & Morgan (2011), in order to generate lipointoxication conditions, with or without the addition of OAG. A) The proportion of dead cells was estimated in the absence (control) or presence of palmitic acid, for increasing concentrations of OAG. B) eIF2α phosphorylation levels were also analyzed under the various conditions by Western blot, in the presence or absence (Ø) of OAG, and were normalized to total eIF2α.
# The lipid species are prepared in ethanol before being complexed with bovine serum albumin (BSA, first depleted of fatty acids) by incubation for 1 hour at 37° C. The palmitic acid stock solution is obtained by adding one volume of ethanol before the whole is heated to 70° C. for homogenization. OAG and LPA solutions are prepared in 100% ethanol at room temperature. For the incubations of mammalian cells, the final BSA and ethanol concentrations in the culture medium are kept at 1% and 0.5% (w/v), respectively.
# The rat pancreatic β-cell line (BRIN-BD11) is grown in complete RPMI-1640 medium, containing 11 mM glucose and supplemented with 10% (v/v) fetal calf serum (FCS), 2 mM L-glutamine, 100 U/ml penicillin and 100 μg/ml streptomycin. For each experiment, the cells are first seeded at a density of 0.5×10^5 cells/ml in 6-well plates for 24 hours. Thereafter, the complete medium is replaced by an equivalent lacking FCS but containing the lipid reagents of interest, at the desired concentrations, complexed with BSA. Under the control conditions, identical amounts of BSA and ethanol are then used. […] After incubation on ice for 10 minutes, the samples thus obtained are analyzed by flow cytometry. A Beckman Coulter EPICS XL MCL is used for the quantification, an FL3 channel is used to detect the emissions of the PI intercalated in the DNA, and the analysis is carried out using the EXPO32 ADC software (Applied Cytometry Systems, V 1.1 build 207).
# [2] = test system: phospholipids of the cellular membranes (hem1Δ strain); assay: Fatty acid content of cellular phospholipids (lipid extraction, ESI-MS); format: cell-based, Saccharomyces cerevisiae
# Protocol: The hem1Δ strain is grown in liquid medium (YPG^A, YPG^+, or YPG^++200 μM compound to be tested) under aerobic conditions, with shaking and at 28° C. for 7 hours, from an initial cell concentration of 2×10^6 cells/ml. At the conclusion of the culture, 10^8 cells are collected in order to carry out a total lipid extraction. After having suspended the cells in 1 ml of distilled water at 4° C., 500 μl of glass beads (Ø 0.6 mm) are added and the whole then undergoes 3 sequences of 20 seconds at 5000 rpm in a shaker (the tubes are kept on ice between each of the 3 sequences). The cell lysate then obtained, supplemented with bead-washing solution (1 ml), is then transferred to a 40 ml glass tube (Corex™) before carrying out the lipid extraction using a 2:1 (v/v) methanol:chloroform ratio. First, 6 ml of methanol is added and the whole is vortexed for 30 seconds and then incubated for 15 minutes at 65° C. Once the mixture cools to room temperature, 3 ml of chloroform is added and then the whole is vortexed again for 30 seconds before allowing the extraction to proceed for 16 hours. Later, the sample is centrifuged for 12 minutes at 10000 g before transferring the supernatant to a new Corex™ tube. After adding 2 ml of chloroform and then 4 ml of distilled water, the whole is vortexed for 30 seconds and then centrifuged for 8 minutes at 3000 g. After removing the resulting upper phase, the lower organic phase is collected in a glass hemolysis tube. Finally, the solvent is evaporated under a stream of nitrogen at 80° C. in order to obtain the total cellular lipid samples.
# The total cellular lipid samples are resuspended in 1 ml of dichloromethane while being vortexed for 30 seconds. The whole is deposited on a silica column (BOND ELUT-SI, 100 mg 1 ml) preconditioned successively with 3 ml of methanol and then 2 ml of dichloromethane. The fraction retained by the column is then washed successively with 2 ml of dichloromethane and then 3 ml of acetone. Finally, 2 ml of a 50:45:5 (v/v/v) chloroform/methanol/water mixture is deposited on the column and the phospholipids thus eluted are collected in a glass hemolysis tube. The solvent is evaporated under nitrogen at 80° C. in order to obtain the cellular phospholipid samples.
# Once resuspended in 100 μl of the mixture Mix^− (2:1:1 (v/v/v) isopropanol/acetonitrile/water+1% (v/v) triethylamine) or the mixture Mix^+ (2:1:1 (v/v/v) isopropanol/acetonitrile/water+1% (v/v) formic acid), the samples are analyzed by electrospray ionization mass spectrometry (ESI-MS) in negative or positive mode, respectively, and the results obtained are used to analyze the fatty acid content of the various phospholipid species.
# [3] = test system: lipase; assay: Resistance to hydrolytic activity of lipases (thin-layer chromatography); format: in vitro ADME; conditions: 10 U of lipase, 30 minutes, 37° C.
# Protocol: OAG (15 μmol) and N,N-diethanololeamide were subjected (+) or not (−) to exposure to 10 U of lipase for 30 minutes at 37° C. Following the incubation, the lipid species were extracted from the samples before being separated by thin-layer chromatography.
# [4] = test system: hem1Δ yeasts grown under SFA accumulation conditions; assay: Restoration of growth of lipointoxicated hem1Δ yeast; format: cell-based, Saccharomyces cerevisiae; conditions: after 3 days, increasing concentrations
# Protocol: The strain bearing the hem1Δ mutation is grown, under aerobic conditions, with shaking and at 28° C., in liquid YPG^A medium (YPG (1% yeast extract (w/v), 1% peptone (w/v) and 2% glucose (w/v)) supplemented with 80 μg/ml 6-aminolevulinic acid (ALA)). Lipointoxication by saturated fatty acids (SFA) is caused by depletion of unsaturated fatty acids (UFA), the synthesis of which is dependent on the presence of heme (the prosthetic group of the Ole1p enzyme in particular), by transfer to YPG^+ medium (YPG supplemented with 80 μg/ml ergosterol to compensate for the sterol depletion obtained under this condition). Lipointoxication can be induced on solid YPG^+ medium+2% agar (w/v) by transferring 3500 cells (hem1Δ from preculture in YPG^A) per cm^2 or, alternatively, in liquid medium by inoculating 2×10^6 cells/ml YPG^+. Classically, the effects of SFA lipointoxication are analyzed 7 hours after the transfer to YPG^+ medium. The ability of a compound to counter the deleterious effects of SFA lipointoxication, in turn, is evaluated successively to the addition of this compound on (or in) the YPG^+ transfer medium, after seeding with the cells.
# Following the induction of SFA lipointoxication (for hem1Δ grown on solid medium) 5 μl drops of solutions of the various compounds at 10 mM in dimethylsulfoxide (DMSO) or ethanol (EtOH) are deposited on the surface of the agar. The ability of a compound to counter the arrest of lipid-induced cell growth is estimated by the appearance of a halo of hem1Δ colonies at the site of the deposition of said compound after 3 days of culture at 28° C. (see Deguil et al., 2011).
# Jointly with the induction of SFA lipointoxication (for hem1Δ in liquid medium), the various compounds are added to the cultures at an initial concentration of 200 μM. Proliferation is monitored by spectrometric measurement of cell density, at regular time intervals (every hour over the duration of the observation). At a wavelength of 600 nm, one optical density unit (OD600 nm) corresponds to 2×10^7 cells/ml.
# [5] = test system: QM strain (cells not synthesizing triglycerides); assay: Toxicity test on QM strain (growth inhibition halos); format: cell-based, Saccharomyces cerevisiae; conditions: 5 μl drops on agar, after three days
# Protocol: Drops (5 μl) of OAG, LPA or oleic acid were deposited, from stock solutions at the indicated concentrations, on the surface of an agar medium over which the QM strain had been spread beforehand. […] These halos are, however, not observed in the presence of LPA or of OAG.
# In parallel, wild-type (WT) and quadruple mutant (QM) strains are grown, under aerobic conditions, with shaking and at 28° C., in liquid YPG medium before seeding 3500 cells per cm^2 of YPG+2% agar (w/v). Following this transfer to solid medium, 1 μl drops of 1, 10 and 100 mM solutions of the various compounds in DMSO or EtOH are deposited on the agar surface. Separately, DMSO and EtOH are also deposited in order to evaluate the intrinsic toxicity of these two solvents. After 3 days of culture at 28° C., the toxicity of the compounds tested is evaluated by comparing the growth inhibition halo diameters obtained for the depositions of pure solvent with those of the depositions of the various concentrations of the compounds tested. Unlike the WT strain, the QM strain is incapable of buffering excess exogenous oleic acid in the form of neutral lipids (triglycerides (TG) or esterified sterols (ES)) in lipid droplets.
SMILES,Apoptosis / proportion of dead cells of pancreatic β-cells [1],Effect on fatty acid composition of membrane phospholipids [2],Hydrolysis by lipases [3],Restoration of the growth of hem1Δ yeasts [4],Growth inhibition halos on QM strain [5]
"CCCCCCCC/C=C\CCCCCCCC(=O)OCC(CO)(CO)CO [3-hydroxy-2,2-bis(hydroxymethyl)propyl oleate]",prevent apoptosis,without restoring a normal diunsaturated phospholipid composition,–,–,–
"CCCCCCCC/C=C\CCCCCCCC(=O)N(CCO)CCO [N,N-diethanololeamide]",prevent apoptosis,without restoring a normal diunsaturated phospholipid composition,resists hydrolysis by lipases,–,–
"CCCCCCCC/C=C\CCCCCCCC(=O)O [oleic acid, reference compound]",–,–,–,restore the growth,growth inhibition halos (absence of colonies) can be observed
